29 compounds from PMC8158254, “Anion inhibition studies of the α-carbonic anhydrases from Neisseria gonorrhoeae” (Journal of Enzyme Inhibition and Medicinal Chemistry, 2021) can be followed below.

The first test addresses T1, NgCA (Neisseria gonorrhoeae, UniProt Q50940).
T1 construct: gene cah
T1 sequence (Q50940 27-252): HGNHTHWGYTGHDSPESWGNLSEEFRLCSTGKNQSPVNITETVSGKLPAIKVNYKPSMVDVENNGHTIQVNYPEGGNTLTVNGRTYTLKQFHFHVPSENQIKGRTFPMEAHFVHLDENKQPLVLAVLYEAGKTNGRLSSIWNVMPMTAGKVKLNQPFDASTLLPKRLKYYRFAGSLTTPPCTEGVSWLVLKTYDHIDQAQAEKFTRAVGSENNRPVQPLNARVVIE
The test can be described thus: biochemical.
Conditions: not given
`I` [I^−]: the Ki was found to be 9600 µM.

`N#CS` [NCS^−] came in with a Ki of 920 µM.

On to `O=P(O)(O)OP(=O)(O)O` [P2O7^2-], for which the Ki was determined as 4900 µM.

On to `O=S(=O)(O)O` [SO4^2-], for which the Ki amounted to 830 µM.

The test is the same for the next values; noted with them: read-out: NgCA.
As for `Br` [Br^−], the Ki amounted to 4000 µM.

As for `O=S(=O)(O)C(F)(F)F` [CF3SO3^−], the Ki is 5700 µM.

Take `S=C(S)S` [CS3^2-]: the Ki came out at 88 µM.

As for `[O-][Cl+3]([O-])([O-])O` [ClO4^−], the Ki was greater than 100000 µM.

For `Cl` [Cl^−], the Ki is 4800 µM.

As to `CCN(CC)C(=S)S` [EtNCS2^−], the Ki amounted to 5.1 µM.

Take `O=S(=O)(O)F` [FSO3^−]: the Ki was determined as 610 µM.

As for `F` [F^−], the Ki amounted to 8300 µM.

As for `O=S(O)O` [HSO3^−], the Ki was 660 µM.

As to `S` [HS^−], the Ki came out at 550 µM.

With `N#CO` [NCO^−], the Ki is 430 µM.

For the compound `NS(N)(=O)=O` [NH2SO2NH2], the Ki was found to be 58 µM.

For `NS(=O)(=O)O` [NH2SO3H], the Ki was determined as 24 µM.

In the case of `O=S(=O)(O)NS(=O)(=O)O` [NH(SO3)2^2-], the Ki turned out to be 250 µM.

`O=NO` [NO2^−]: the Ki was found to be 590 µM.

In the case of `O=[N+]([O-])O` [NO3^−], the Ki was found to be 850 µM.

Consider `OB(O)c1ccccc1` [PhB(OH)2], for which the Ki turned out to be 150 µM.

As to `[O]=[Re](=[O])(=[O])[OH]` [ReO4^−], the Ki amounted to 960 µM.

Consider `[O]=[Ru](=[O])(=[O])[OH]` [RuO4^−], for which the Ki turned out to be 1900 µM.

As to `O=S(=O)(O)OOS(=O)(=O)O` [S2O8^2-], the Ki turned out to be 790 µM.

In the case of `N#C[SeH]` [SeCN^−], the Ki came out at 660 µM.

As to `O=[Se](=O)(O)O` [SeO4^2-], the Ki is 870 µM.

With `O=[Te](=O)(O)O` [TeO4^2-], the Ki is 760 µM.

In the case of `[O]=[V]([OH])([OH])[O][V](=[O])([OH])[OH]` [V2O7^2-], the Ki worked out at 2800 µM.

The same test, now with this note: sodium salt; CO2 substrate, 10 mM Hepes pH 7.4, 10 mM NaClO4, 15 min preincubation at room temperature; read-out: hCA I.
Consider `F[P-](F)(F)(F)(F)F` [PF6^−], for which the Ki is greater than 100000 µM.
